The target in the series is Cytochrome P450 3A4 (Homo sapiens, UniProt P08684). Put plainly: CYP Inhibition Assay. An excerpt:
The final concentrations of DMSO and acetonitrile were equal to or less than 0.1%.

pIC50: −log10 of the molar value.

Cytochrome P450 3A4, sequence (P08684 whole entry): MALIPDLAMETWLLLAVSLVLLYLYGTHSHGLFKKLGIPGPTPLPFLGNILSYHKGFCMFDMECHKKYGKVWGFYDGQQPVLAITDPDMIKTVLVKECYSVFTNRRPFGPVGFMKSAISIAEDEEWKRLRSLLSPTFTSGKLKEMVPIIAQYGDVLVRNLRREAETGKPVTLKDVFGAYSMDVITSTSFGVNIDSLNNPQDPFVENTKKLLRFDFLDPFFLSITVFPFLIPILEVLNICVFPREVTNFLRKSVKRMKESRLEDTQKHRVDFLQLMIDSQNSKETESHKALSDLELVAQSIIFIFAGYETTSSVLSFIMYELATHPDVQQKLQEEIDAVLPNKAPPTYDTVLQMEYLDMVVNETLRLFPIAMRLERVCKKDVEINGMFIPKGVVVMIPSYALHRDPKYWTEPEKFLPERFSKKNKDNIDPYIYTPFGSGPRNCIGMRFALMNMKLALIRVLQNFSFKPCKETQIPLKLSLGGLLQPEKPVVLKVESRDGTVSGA

With `CC(=O)CCC(=O)Nc1ncc2cc1O[C@H](C)c1cc(F)ccc1C(=O)N(C)Cc1nn(C)c(C#N)c1-2` [US12338251, Compound 3], the negative logarithm of the IC50 (pIC50) was 3.55.

The term pIC50 denotes the negative decadic logarithm of the IC50, by convention in mol/L. A higher pIC50 goes with a low IC50.

(Values after BindingDB's records for patent US12338251 (Teligene US, 2025).)
